Experimental data from patent publication US6737383B1, “Herbicidal oxadiazolidines” (priority 1999, dated 2004).

Legend:
surinam grass = assay: Test B pre/postemergence surinam grass; assay type: in vivo, Brachiaria decumbens
How it was run: (§1)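 Test chemicals in a non-phytotoxic solvent mixture with surfactant were sprayed preemergence onto planted seeds and postemergence onto plants 2 to 18 cm tall (1- to 4-leaf stage). After twelve to sixteen days in a greenhouse, injury was visually rated against untreated controls from 0 (no effect) to 10 (complete control).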

wild oat = assay: Test B pre/postemergence wild oat; assay type: in vivo, Avena fatua
How it was run: as §1

rape = assay: Test B pre/postemergence rape; assay type: in vivo, Brassica napus
How it was run: as §1

smallflower flatsedge = assay: Test B flood test smallflower flatsedge; assay type: in vivo, Cyperus difformis
How it was run: (§2)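 Each value is a visual injury score relative to controls, with 10 meaning complete control and 0 no effect. Evaluation took place twelve to sixteen days after the 2-leaf-stage plants were treated and kept in the greenhouse.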

sugar beet = assay: Test B pre/postemergence sugar beet; assay type: in vivo, Beta vulgaris
How it was run: as §1

corn = assay: Test B pre/postemergence corn; assay type: in vivo, Zea mays
How it was run: as §1

bedstraw = assay: Test B pre/postemergence bedstraw; assay type: in vivo, Galium aparine
How it was run: as §1

cocklebur = assay: Test B pre/postemergence cocklebur; assay type: in vivo, Xanthium strumarium
How it was run: as §1

velvetleaf = assay: Test B pre/postemergence velvetleaf; assay type: in vivo, Abutilon theophrasti
How it was run: as §1

crabgrass = assay: Test B pre/postemergence crabgrass; assay type: in vivo, Digitaria sanguinalis
How it was run: as §1

bamyardgrass = assay: Test B flood test barnyardgrass; assay type: in vivo, Echinochloa crus-galli
How it was run: as §2

pigweed = assay: Test B pre/postemergence pigweed; assay type: in vivo, Amaranthus retroflexus
How it was run: as §1

giant foxtail = assay: Test B pre/postemergence giant foxtail; assay type: in vivo, Setaria faberii
How it was run: as §1

morningglory = assay: Test B pre/postemergence morningglory; assay type: in vivo, Ipomoea hederacea
How it was run: as §1

blackgrass = assay: Test B pre/postemergence blackgrass; assay type: in vivo, Alopecurus myosuroides
How it was run: as §1

rice = assay: Test B flood test rice; assay type: in vivo, Oryza sativa
How it was run: as §2

[1] = Postemergence, Rate 500 g/ha, scale of 0 to 10 where 0 is no effect and 10 is complete control
[2] = Postemergence, Rate 1000 g/ha, scale 0 to 10 (0 no effect, 10 complete control)
[3] = Preemergence, Rate 125 g/ha, scale of 0 to 10 where 0 is no effect and 10 is complete control
[4] = Preemergence, Rate 250 g/ha, scale 0 to 10, 0 is no effect, 10 is complete control
[5] = Preemergence, Rate 500 g/ha, scale 0 to 10, 0 is no effect, 10 is complete control
[6] = Rate 125 g/ha, Postemergence, scale 0 to 10, 0 is no effect, 10 is complete control
[7] = Rate 1000 g/ha, Preemergence, scale 0 to 10 (0 no effect, 10 complete control)
[8] = Postemergence, Rate 250 g/ha, scale 0 to 10
[9] = Pre-emergence, Rate 1000 g/ha, scale 0 to 10 (0 no effect, 10 complete control)
[10] = Rate 125 g/ha, under heading Pre-emergence, flood test species, visual evaluation after twelve to sixteen days
[11] = Rate 250 g/ha, Pre-emergence (flood test species), scale 0 to 10, 0 is no effect, 10 is complete control
[12] = Rate 500 g/ha, Pre-emergence, flood test species, scale 0 to 10 (0 no effect, 10 complete control)

CCOP(=O)(OCC)C(C)n1c(=O)on(C(=O)N(c2ccccc2)C(C)C)c1=O (stereo not shown) [Compound 448]
3: Giant foxtail plant response rating (giant foxtail; [4])
4: Plant response rating, B. signalgrass (surinam grass; [7]) | Wild oats plant response rating (wild oat; [2]) | Plant response rating, Crabgrass (crabgrass; [3]) | Crabgrass plant response rating (crabgrass; [4]) | Plant response rating, Blackgrass (blackgrass; [7])
8: Morningglory plant response rating (morningglory; [2])
5: Plant response rating, Wild oats (wild oat; [7]) | Morningglory plant response rating (morningglory; [1])
0: B. signalgrass plant response rating (surinam grass; Postemergence, Rate 250 g/ha, scale 0 to 10, 0 no effect, 10 complete control) | B. signalgrass plant response rating (surinam grass; [1]) | B. signalgrass plant response rating (surinam grass; [2]) | Plant response rating, B. signalgrass (surinam grass; [3]) | B. signalgrass plant response rating (surinam grass; [4]) | B. signalgrass plant response rating (surinam grass; [6]) | Wild oats plant response rating (wild oat; [8]) | Wild oats plant response rating (wild oat; [1]) | Plant response rating, Wild oats (wild oat; [3]) | Wild oats plant response rating (wild oat; [4]) | Wild oats plant response rating (wild oat; [5]) | Wild oats plant response rating (wild oat; [6]) | Rape plant response rating (rape; [8]) | Rape plant response rating (rape; [1]) | Rape plant response rating (rape; [2]) | Plant response rating, Rape (rape; [3]) | Rape plant response rating (rape; [4]) | Rape plant response rating (rape; [5]) | Rape plant response rating (rape; [6]) | Plant response rating, Rape (rape; [7]) | S. Flatsedge plant response rating (smallflower flatsedge; [9]) | S. Flatsedge plant response rating (0 to 10 scale, 0 is no effect, 10 is complete control) (smallflower flatsedge; [10]) | S. Flatsedge plant response rating (smallflower flatsedge; [11]) | S. Flatsedge plant response rating (smallflower flatsedge; [12]) | Sugarbeets plant response rating (sugar beet; [8]) | Sugarbeets plant response rating (sugar beet; [1]) | Sugarbeets plant response rating (sugar beet; [2]) | Plant response rating, Sugarbeets (sugar beet; [3]) | Sugarbeets plant response rating (sugar beet; [4]) | Sugarbeets plant response rating (sugar beet; [5]) | Sugarbeets plant response rating (sugar beet; [6]) | Plant response rating, Sugarbeets (sugar beet; [7]) | Corn plant response rating (corn; [8]) | Corn plant response rating (corn; [1]) | Corn plant response rating (corn; [2]) | Plant response rating, Corn (corn; [3]) | Corn plant response rating (corn; [4]) | Corn plant response rating (corn; [5]) | Corn plant response rating (corn; [6]) | Bedstraw plant response rating (bedstraw; [8]) | Plant response rating, Bedstraw (bedstraw; [3]) | Bedstraw plant response rating (bedstraw; [4]) | Bedstraw plant response rating (bedstraw; [5]) | Bedstraw plant response rating (bedstraw; [6]) | Plant response rating, Bedstraw (bedstraw; [7]) | Cocklebur plant response rating (cocklebur; [8]) | Cocklebur plant response rating (cocklebur; [1]) | Cocklebur plant response rating (cocklebur; [2]) | Plant response rating, Cocklebur (cocklebur; [3]) | Cocklebur plant response rating (cocklebur; [4]) | Cocklebur plant response rating (cocklebur; [6]) | Velvetleaf plant response rating (velvetleaf; [8]) | Velvetleaf plant response rating (velvetleaf; [1]) | Plant response rating, Velvetleaf (velvetleaf; [3]) | Velvetleaf plant response rating (velvetleaf; [4]) | Velvetleaf plant response rating (velvetleaf; [5]) | Velvetleaf plant response rating (velvetleaf; [6]) | Plant response rating, Velvetleaf (velvetleaf; [7]) | Crabgrass plant response rating (crabgrass; [8]) | Crabgrass plant response rating (crabgrass; [1]) | Crabgrass plant response rating (crabgrass; [2]) | Crabgrass plant response rating (crabgrass; [6]) | Barnyardgrass plant response rating (bamyardgrass; [9]) | Barnyardgrass plant response rating (0 to 10 scale, 0 is no effect, 10 is complete control) (bamyardgrass; [10]) | Barnyardgrass plant response rating (bamyardgrass; [11]) | Barnyardgrass plant response rating (bamyardgrass; [12]) | Redroot pigweed plant response rating (pigweed; [8]) | Redroot pigweed plant response rating (pigweed; [1]) | Redroot pigweed plant response rating (pigweed; [2]) | Plant response rating, Redroot pigweed (pigweed; [3]) | Redroot pigweed plant response rating (pigweed; [4]) | Redroot pigweed plant response rating (pigweed; [5]) | Redroot pigweed plant response rating (pigweed; [6]) | Plant response rating, Redroot pigweed (pigweed; [7]) | Giant foxtail plant response rating (giant foxtail; [8]) | Giant foxtail plant response rating (giant foxtail; [1]) | Giant foxtail plant response rating (giant foxtail; [2]) | Giant foxtail plant response rating (giant foxtail; [6]) | Plant response rating, Morningglory (morningglory; [3]) | Morningglory plant response rating (morningglory; [4]) | Morningglory plant response rating (morningglory; [5]) | Morningglory plant response rating (morningglory; [6]) | Plant response rating, Morningglory (morningglory; [7]) | Blackgrass plant response rating (blackgrass; [8]) | Blackgrass plant response rating (blackgrass; [1]) | Plant response rating, Blackgrass (blackgrass; [3]) | Blackgrass plant response rating (blackgrass; [4]) | Blackgrass plant response rating (blackgrass; [6]) | Rice plant response rating (rice; [9]) | Rice plant response rating (0 to 10 scale, 0 is no effect, 10 is complete control) (rice; [10]) | Rice plant response rating (rice; [11]) | Rice plant response rating (rice; [12])
9: Crabgrass plant response rating (crabgrass; [5]) | Plant response rating, Crabgrass (crabgrass; [7]) | Giant foxtail plant response rating (giant foxtail; [5]) | Plant response rating, Giant foxtail (giant foxtail; [7])
2: B. signalgrass plant response rating (surinam grass; [5]) | Plant response rating, Corn (corn; [7]) | Velvetleaf plant response rating (velvetleaf; [2]) | Plant response rating, Giant foxtail (giant foxtail; [3]) | Morningglory plant response rating (morningglory; [8]) | Blackgrass plant response rating (blackgrass; [2]) | Blackgrass plant response rating (blackgrass; [5])
